Laboratory results reported in paper PMC7790160 (Journal of pharmaceutical sciences, 2020).

Assays:
[1] = system: HCC827; experiment: Apoptosis assay; format: cell-based; details: 12 μM ERL, 2 μM CDODA-Me alone or in combination, 48 h
[2] = system: H1975; experiment: Apoptosis assay; format: cell-based; details: 12 μM ERL alone or with 2 μM CDODA-Me, 48 h
[3] = system: p-EGFR; experiment: Western blot analysis of p-EGFR; format: cell-based; details: 48 h
[4] = system: H460 (KRAS mutated); experiment: Cytotoxicity assay; format: cell-based
[5] = system: H460; experiment: Apoptosis assay; format: cell-based; details: 12 μM ERL alone or with 2 μM CDODA-Me, 48 h
[6] = system: HCC827–4 μM; experiment: Clonogenic assay; format: cell-based; details: 12 μM ERL, 48 h, reseeded, p < 0.001
[7] = system: HCC827; experiment: Clonogenic assay; format: cell-based; details: 12 μM ERL, 48 h, reseeded, p < 0.001
[8] = system: p-MET; experiment: Western blot analysis of p-MET; format: cell-based; details: 12 μM ERL alone or with 2 μM CDODA-Me, 48 h
[9] = system: HCC827–4μM; experiment: Apoptosis assay; format: cell-based; details: 12 μM ERL alone or with 2 μM CDODA-Me, 48 h
[10] = system: EGFR mutated non–small cell lung cancer; details: patients harboring exon 19 deletion / exon 21 EGFR mutations; cited from earlier work
[11] = system: H1975-CL1; experiment: Apoptosis assay; format: cell-based; details: 12 μM ERL alone or with 2 μM CDODA-Me, 48 h
[12] = system: HCC827-CL4; experiment: Apoptosis assay; format: cell-based; details: 12 μM ERL alone or with 2 μM CDODA-Me, 48 h
[13] = system: H460; experiment: Clonogenic assay; format: cell-based; details: 12 μM ERL, 48 h, reseeded, p < 0.001
[14] = system: HCC827; experiment: Cytotoxicity assay; format: cell-based; details: HCC827, 48 h, single agent; no unit printed in Table 3 (b74 gives μM)
[15] = system: HCC827-Cl4 (T790M EGFR ERL Resistant); experiment: Cytotoxicity assay; format: cell-based; details: HCC827-CL4, 48 h, single agent; no unit printed in Table 3 (b74 gives μM)
[16] = system: H1975-CL1 (EGFR G796D mutation rociletinib resistant); experiment: Cytotoxicity assay; format: cell-based; details: H1975 CL1, 48 h, single agent; no unit printed in Table 3 (b74 gives μM)
[17] = system: HCC827–4 μM (Acquired 4 μM ERL Resistant); experiment: Cytotoxicity assay; format: cell-based; details: 48 h, single agent, no unit printed in Table 3 (b74 gives μM)
[18] = system: NSCLC cell lines; experiment: Cytotoxicity assay, statements across cell lines; format: cell-based
[19] = system: H1299 (p53 mutated); experiment: Cytotoxicity assay; format: cell-based; details: H1299, 48 h, single agent
[20] = system: H1975 (T790M EGFR ERL Resistant); experiment: Cytotoxicity assay; format: cell-based; details: H1975, 48 h, single agent; no unit printed in Table 3 (b74 gives μM)
[21] = cited from earlier work
[22] = system: total MET; experiment: Western blot analysis of total MET; format: cell-based; details: all cell lines, 48 h
[23] = system: total EGFR; experiment: Western blot analysis of total EGFR; format: cell-based; details: all cell lines, 48 h

For `C#Cc1cccc(Nc2ncnc3cc(OCCOC)c(OCCOC)cc23)c1` [ERL, erlotinib], the apoptotic cells [1] was roughly 64.23 ± 1.7%, the apoptotic cells [2] was 15 ± 3.7% and the p-EGFR expression ([3]; H1975-CL1, 12 μM ERL alone or with 2 μM CDODA-Me) was “not significant”. For the same molecule, the P-EGFR expression ([3]; HCC827, 12 μM ERL (p < 0.01) or 12 μM ERL + 2 μM CDODA-Me (p < 0.05)) was “significantly decreased”, the IC50 ([4]; Homo sapiens, NCI-H460, 48 h) was 16.3 ± 1.2 µM and the apoptotic cells [5] was 5 ± 4.3%. The colony formation [6] was “decreased colony formation”, the colony formation [7] was “decreased colony formation” and the “expression of p-MET” value ([8]; H1975-CL1, p < 0.001) was “decreased p-MET expression”. The “expression of p-MET” value ([8]; H1975, p < 0.01) was “decreased p-MET expression”, the “expression of p-MET” value ([8]; HCC827-CL4, p < 0.01) was “decreased p-MET expression” and the apoptotic cells [9] was 11 ± 2.9%. The “patients with decreased tumor volume” value [10] was 70%, the apoptotic cells [11] was 9 ± 2.7% and the apoptotic cells [12] was 8 ± 2.5%. The colony formation [13] was “decreased colony formation”.
With `COC(=O)[C@@]1(C)CC[C@]2(C)CC[C@]3(C)C(=CC(=O)[C@@H]4[C@@]5(C)C=C(C#N)C(=O)C(C)(C)[C@@H]5CC[C@]43C)[C@@H]2C1` [CDODA-Me, Methyl 2-cyano-3, 11-dioxo-18b-olean-1, 12-dien-30-oate] the IC50 [14] was 4.5 ± 1.6 µM, the apoptotic cells [1] was “approximately 21.68 ± 1.8%” and the IC50 ([4]; H460, 48 h, single agent, no unit printed in Table 3 (b74 gives μM)) was 5.5 ± 0.8 µM. For the same molecule, the IC50 [15] was 5.7 ± 2.04 µM, the IC50 [16] was 6.6 ± 1.1 µM and the IC50 [17] was 4.4 ± 1.3 µM. The cell viability ([18]; 2 μM, all cell lines) was less than 20%, the IC20 ([18]; resistant HCC827 cells) was 2 µM and the IC50 [19] was 5.4 ± 2.4 µM. For the same molecule, the IC50 [20] was 6.2 ± 1.64 µM, the “permeability (classification)” value [21] was “high permeability” and the “solubility (classification)” value [21] was “low solubility”. The “total MET expression” value [22] was “no effect” and the “total EGFR expression” value [23] was “no effect”.
